The numbers were not newly measured in PubChem BioAssay AID1259410 (Chemical Carcinogenesis Research Information System (CCRIS), 2018), which cites them from elsewhere.

In the data set the test system is rodent tumor promotion studies, tumor incidence. Briefly: CCRIS tumor promotion studies.

As to `CCC1(CC)C(=O)N=C(O)NC1=O`, the outcome by setting is: (Carcinogen: CISPLATIN, 15663-27-1, Doses [Carcinogen]: 5 MG/KG BW GIVEN INTRAPERITONEALLY TO FEMALE RATS ON DAY 18 OF GESTATION, Doses [Promoter]: 0, 500 PPM IN DRINKING WATER BEGINNING AT 4 WK OF AGE AND CONTINUING FOR 75 WK (STUDY DURATION: 79 WK), Route [Carcinogen]: TRANSPLACENTAL, Route [Promoter]: ORAL, Species: RAT, Strain/Sex: F344/MALE) “kidney: renal cell adenoma”; (Carcinogen: METHYL(ACETOXYMETHYL)NITROSAMINE, 56856-83-8, Doses [Carcinogen]: 0.05 MMOL/KG IN 5 ML STERILE PHOSPHATE BUFFER ONCE, Doses [Promoter]: 0, 500 PPM IN DRINKING WATER BEGINNING 2 WK POST CARCINOGEN DOSE AND CONTINUING FOR 78 WK (STUDY DURATION: 80 WK), Route [Carcinogen]: INTRAPERITONEAL, Route [Promoter]: ORAL, Species: RAT, Strain/Sex: F344/MALE) “kidney: tumor”; (Carcinogen: N-BUTYL-N-(4-HYDROXYBUTYL)NITROSAMINE, 3817-11-6, Doses [Carcinogen]: 0.5% IN DRINKING WATER FOR 4 WK, Doses [Promoter]: 1000 PPM IN DIET BEGINNING 1 D POST CARCINOGEN DOSE FOR DURATION OF STUDY (STUDY DURATION: 36-52 WK), Route [Carcinogen]: ORAL, Route [Promoter]: ORAL, Species: RAT, Strain/Sex: F344/MALE) “urinary bladder: papilloma or carcinoma”; (Carcinogen: N-NITROSODIETHYLAMINE, 55-18-5, Doses [Carcinogen]: 75 MG ONCE, Doses [Promoter]: 0, 500 PPM IN DRINKING WATER BEGINNING 2 WK POST CARCINOGEN DOSE AND CONTINUING FOR DURATION OF STUDY (STUDY DURATION: 5, Route [Carcinogen]: INTRAPERITONEAL, Route [Promoter]: ORAL, Species: RAT, Strain/Sex: F344/MALE) “liver: hepatocellular adenoma”; (Carcinogen: N-NITROSODIETHYLAMINE, 55-18-5, Doses [Carcinogen]: 75 MG ONCE, Doses [Promoter]: 0, 500 PPM IN DRINKING WATER BEGINNING 2 WK POST CARCINOGEN DOSE AND CONTINUING FOR DURATION OF STUDY (STUDY DURATION: 7, Route [Carcinogen]: INTRAPERITONEAL, Route [Promoter]: ORAL, Species: RAT, Strain/Sex: F344/MALE) “liver: hepatocellular carcinoma; kidney: renal tubular adenoma or adenocarcinoma”; (Carcinogen: N-[4-(5-NITRO-2-FURYL)-2-THIAZOLYL]FORMAMIDE, 24554-26-5, Doses [Carcinogen]: 0.2% IN DIET FOR 6 WK, Doses [Promoter]: 1000 PPM IN DIET BEGINNING 2 WK POST LAST CARCINOGEN DOSE AND CONTINUING FOR DURATION OF STUDY (STUDY DURATION: 52-68 WK, Route [Carcinogen]: ORAL, Route [Promoter]: ORAL, Species: RAT, Strain/Sex: F344/MALE) “urinary bladder: papilloma or carcinoma”. Moreover, the outcome (Carcinogen: NONE (PROMOTION OF SPONTANEOUS TUMORS), Doses [Promoter]: 500 PPM IN DIET FOR 4.5 MONTHS (STUDY DURATION: 4.5 MONTHS), Route [Promoter]: ORAL, Species: RAT, Strain/Sex: EKER (TSC2 MUTANT)/MALE) was “kidney: adenoma or carcinoma”; the outcome (Doses [Carcinogen]: 45 UMOL/KG BW GIVEN INTRAPERITONEALLY TO MOTHERS ON DAYS 16 AND 18 OF GESTATION, Doses [Promoter]: 0, 0.05% IN DRINKING WATER BEGINNING AT 4 WK OF AGE AND CONTINUING FOR 81 WK (STUDY DURATION: 85 WK), Route [Carcinogen]: TRANSPLACENTAL, Route [Promoter]: ORAL, Species: RAT, Strain/Sex: F344/MALE) was “kidney: tumors”; the outcome (Doses [Carcinogen]: 90 UMOL/KG BW GIVEN INTRAPERITONEALLY TO MOTHERS ON DAY 17 OF GESTATION, Doses [Promoter]: 0, 0.05% IN DRINKING WATER BEGINNING AT 4 WK OF AGE AND CONTINUING FOR 81 WK (STUDY DURATION: 85 WK), Route [Carcinogen]: TRANSPLACENTAL, Route [Promoter]: ORAL, Species: RAT, Strain/Sex: F344/MALE) is on record as “kidney: tumors”; the outcome (Doses [Carcinogen]: 90 UMOL/KG ONCE IN DISTILLED WATER, Doses [Promoter]: 0, 500 PPM IN DRINKING WATER BEGINNING 2 WK POST CARCINOGEN DOSE (STUDY DURATION: 96 WK), Route [Carcinogen]: INTRAPERITONEAL, Route [Promoter]: ORAL, Species: RAT, Strain/Sex: F344/MALE) is reported as “kidney: adenoma or carcinoma”.
In the case of `CC1=C(/C=C/C(C)=C/C=C/C(C)=C/C=C/C=C(C)/C=C/C=C(C)/C=C/C2=C(C)CCCC2(C)C)C(C)(C)CCC1`, the outcome is recorded as “lung - negative” (Carcinogen: 4-(N-METHYL-N-NITROSAMINO)-1-(3-PYRIDYL)-1-BUTANONE (NNK) [64091-91-4], Doses [Carcinogen]: 3.5 MG ON D 7, Doses [Promoter]: 0, 120, 600, 3000 PPM FROM START TO END AT 26 WKS (STUDY DURATION: 26 WKS), Doses [Promoter]: 0, 120, 600, 3000 PPM FROM START TO END AT 26 WKS (STUDY DURATION: 26 WKS), Route [Carcinogen]: IP INJECTION, Route [Promoter]: DIET, Species: MOUSE, Strain/Sex: A/J/MALE); “lung - negative” (Carcinogen: 4-(N-METHYL-N-NITROSAMINO)-1-(3-PYRIDYL)-1-BUTANONE (NNK) [64091-91-4], Doses [Carcinogen]: 3.5 MG ON D 15 (STUDY DURATION: 28 WKS), Doses [Promoter]: 600 PPM WKS 1 TO 3, WKS 6 TO 28 OR WKS 1 TO 28 (STUDY DURATION: 28 WKS), Route [Carcinogen]: IP INJECTION, Route [Promoter]: DIET, Species: MOUSE, Strain/Sex: A/J/MALE); “lung - negative” (Carcinogen: 4-(N-METHYL-N-NITROSAMINO)-1-(3-PYRIDYL)-1-BUTANONE (NNK) [64091-91-4], Doses [Carcinogen]: 5 MG ON D 28, Doses [Promoter]: 600 PPM FROM START TO WK 5, WK 3 TO 8, WKS 8 TO 24 OR FOR 24 WKS (STUDY DURATION: 24 WKS), Route [Carcinogen]: IP INJECTION, Route [Promoter]: DIET, Species: MOUSE, Strain/Sex: A/J/MALE).
For the compound `C=C(CC(=O)OC)C(=O)OC`, the outcome (Carcinogen: N-METHYLNITROSOUREA, 684-93-5, Doses [Carcinogen]: 100 PPM IN DRINKING WATER FOR 15 WK, Doses [Promoter]: 0, 0.5% IN DRINKING WATER FOR 37 WK BEGINNING POST CARCINOGEN TREATMENT (STUDY DURATION: 52 WK), Route [Carcinogen]: ORAL, Route [Promoter]: ORAL, Species: RAT, Strain/Sex: F344/MALE) is on record as “glandular stomach: adenoma, carcinoma”.
On to `CSCC[C@H](NC(=O)[C@H](Cc1ccccc1)NC(=O)CNC(=O)CNC(=O)[C@@H](N)Cc1ccc(O)cc1)C(=O)O`, for which the outcome runs as follows: (Carcinogen: AZOXYMETHANE, 25843-45-2, Doses [Carcinogen]: 7.4 MG/KG IN 0.9% SALINE 1/WK FOR 10 WK, Doses [Promoter]: 0, 50 UG/KG IN OLIVE OIL 1/2 D BEGINNING AT THE START OF CARCINOGEN TREATMENT AND CONTINUING FOR DURATION OF STUDY (STUD, Route [Carcinogen]: SUBCUTANEOUS, Route [Promoter]: SUBCUTANEOUS, Species: RAT, Strain/Sex: WISTAR/MALE) “colon: tumor”; (Carcinogen: N-METHYL-N'-NITRO-N-NITROSOGUANIDINE, 70-25-7, Doses [Carcinogen]: 25 UG/ML IN DRINKING WATER FOR 25 WK, Doses [Promoter]: 0, 20 UG/KG 1/2 D BEGINNING POST CARCINOGEN TREATMENT AND CONTINUING FOR THE DURATION OF STUDY (STUDY DURATION: 52 WK), Route [Carcinogen]: ORAL, Route [Promoter]: SUBCUTANEOUS, Species: RAT, Strain/Sex: WISTAR/MALE) “stomach: adenocarcinoma”.
As for `CC[C@H](C)[C@H](NC(=O)[C@H](CO)NC(=O)[C@H](CC(N)=O)NC(=O)[C@H](CC(C)C)NC(=O)[C@H](Cc1ccc(O)cc1)NC(=O)[C@H](CCCCN)NC(=O)[C@H](CCCCN)NC(=O)[C@@H](NC(=O)[C@H](C)NC(=O)[C@H](CCSC)NC(=O)[C@H](CCC(N)=O)NC(=O)[C@H](CCCCN)NC(=O)[C@H](CCCNC(=N)N)NC(=O)[C@H](CC(C)C)NC(=O)[C@H](CCCNC(=N)N)NC(=O)[C@@H](NC(=O)[C@H](Cc1ccc(O)cc1)NC(=O)[C@H](CC(N)=O)NC(=O)[C@H](CC(=O)O)NC(=O)[C@@H](NC(=O)[C@H](Cc1ccccc1)NC(=O)[C@@H](NC(=O)[C@H](C)NC(=O)[C@H](CC(=O)O)NC(=O)[C@H](CO)NC(=O)[C@@H](N)Cc1c[nH]cn1)C(C)C)[C@@H](C)O)[C@@H](C)O)C(C)C)C(=O)N[C@@H](CC(C)C)C(=O)N[C@@H](CC(N)=O)C(=O)O`, where the note is “Carcinogen: AZOXYMETHANE, 25843-45-2, Doses [Carcinogen]: 7.4 MG/KG BW IN 0.9% SALINE 1/WK FOR 10 WK, Doses [Promoter]: 0, 20 UG/KG BW IN OLIVE OIL 1/2 D FOR DURATION OF STUDY (STUDY DURATION: 45 WK), Route [Carcinogen]: SUBCUTANEOUS, Route [Promoter]: SUBCUTANEOUS, Species: RAT, Strain/Sex: WISTAR/MALE”, the outcome was “colon: tumor”.
Turning to `COc1ccc(O)cc1`, the outcome (Carcinogen: DIETHYLNITROSAMINE, 55-18-5, N-METHYLNITROSOUREA, 684-93-5, 1,2-DIMETHYLHYDRAZINE, 540-73-8, N-BUTYL-N-(4-HYDROXYBUTYL)N, Carcinogen: DIETHYLNITROSAMINE, 55-18-5, N-METHYLNITROSOUREA, 684-93-5, 1,2-DIMETHYLHYDRAZINE, 540-73-8, N-BUTYL-N-(4-HYDROXYBUTYL)N, Doses [Carcinogen]: 100 MG/KG BW DEN ONCE FOLLOWED BY 20 MG/KG BW MNU 2/WK FOR 2 WK THEN 40 MG/KG BW DMH 2/WK FOR THE NEXT 2 WK, 0.05% BBN I, Doses [Promoter]: 0, 0.4% IN DIET FOR 24 WK BEGINNING POST CARCINOGEN TREATMENT (STUDY DURATION: 28 WK), Route [Carcinogen]: INTRAPERITONEAL, INTRAPERITONEAL, SUBCUTANEOUS, ORAL, Route [Carcinogen]: INTRAPERITONEAL, INTRAPERITONEAL, SUBCUTANEOUS, ORAL, Route [Promoter]: ORAL, Species: RAT, Strain/Sex: F344/MALE) was “forestomach: papilloma”.
